Reference: the NIST ThermoML archive (doi:10.1021/je060271a)
“And” between values parts separate entries of the source, which are not always exact repeats. Equal values may be shown once.

Conditions: Liquid, Vibrating tube method

CCCC(=O)OCC(COC(=O)CCC)(COC(=O)CCC)COC(=O)CCC [pentaerythritol tetrabutyrate]
Conditions | mass density
323.15 K, 30112 kPa | 1045 kg/m3
323.15 K, 30149 kPa | 1045.1 kg/m3
323.15 K, 30193 kPa | 1045.1 kg/m3
323.15 K, 30232 kPa | 1045.2 kg/m3
323.15 K, 30562 kPa | 1045.3 kg/m3
323.15 K, 30601 kPa | 1045.3 kg/m3
323.15 K, 30640 kPa | 1045.5 kg/m3
323.15 K, 30680 kPa | 1045.4 kg/m3
323.15 K, 30730 kPa | 1045.5 kg/m3
323.15 K, 30771 kPa | 1045.5 kg/m3
323.15 K, 30818 kPa | 1045.4 kg/m3
323.15 K, 30850 kPa | 1045.6 kg/m3
323.15 K, 30881 kPa | 1045.6 kg/m3
323.15 K, 30918 kPa | 1045.7 kg/m3
323.15 K, 30948 kPa | 1045.6 kg/m3
323.15 K, 30979 kPa | 1045.6 kg/m3
323.15 K, 31009 kPa | 1045.7 kg/m3
323.15 K, 31047 kPa | 1045.6 kg/m3
323.15 K, 31079 kPa | 1045.6 kg/m3
323.15 K, 31110 kPa | 1045.6 kg/m3
323.15 K, 31146 kPa | 1045.7 kg/m3
323.15 K, 31178 kPa | 1045.9 kg/m3
323.15 K, 31209 kPa | 1045.6 kg/m3
323.15 K, 31247 kPa | 1045.7 kg/m3
323.15 K, 31278 kPa | 1045.7 kg/m3
323.15 K, 31310 kPa | 1045.8 kg/m3
323.15 K, 31347 kPa | 1045.9 kg/m3
323.15 K, 31379 kPa | 1045.9 kg/m3
323.15 K, 31411 kPa | 1045.8 kg/m3
323.15 K, 31450 kPa | 1045.8 kg/m3
323.15 K, 31481 kPa | 1045.9 kg/m3
323.15 K, 31513 kPa | 1045.9 kg/m3
323.15 K, 31546 kPa | 1046 kg/m3
323.15 K, 31584 kPa | 1045.9 kg/m3
323.15 K, 31616 kPa | 1046 kg/m3
323.15 K, 31649 kPa | 1046 kg/m3
323.15 K, 31690 kPa | 1046 kg/m3
323.15 K, 31725 kPa | 1046 kg/m3
323.15 K, 31758 kPa | 1046 kg/m3
323.15 K, 31791 kPa | 1046 kg/m3
323.15 K, 31830 kPa | 1046.2 kg/m3
323.15 K, 31863 kPa | 1046.2 kg/m3
323.15 K, 31896 kPa | 1046.1 kg/m3
323.15 K, 31936 kPa | 1046.2 kg/m3
323.15 K, 31970 kPa | 1046.2 kg/m3
323.15 K, 32003 kPa | 1046.3 kg/m3
323.15 K, 32043 kPa | 1046.2 kg/m3
323.15 K, 32151 kPa | 1046.3 kg/m3
323.15 K, 32179 kPa | 1046.3 kg/m3
323.15 K, 32219 kPa | 1046.4 kg/m3
323.15 K, 32253 kPa | 1046.3 kg/m3
323.15 K, 32288 kPa | 1046.4 kg/m3
323.15 K, 32328 kPa | 1046.5 kg/m3
323.15 K, 32362 kPa | 1046.4 kg/m3
323.15 K, 32403 kPa | 1046.5 kg/m3
323.15 K, 32437 kPa | 1046.5 kg/m3
323.15 K, 32472 kPa | 1046.5 kg/m3
323.15 K, 32506 kPa | 1046.5 kg/m3
323.15 K, 32548 kPa | 1046.5 kg/m3
323.15 K, 32583 kPa | 1046.6 kg/m3
323.15 K, 32618 kPa | 1046.6 kg/m3
323.15 K, 32660 kPa | 1046.7 kg/m3
323.15 K, 32694 kPa | 1046.6 kg/m3
323.15 K, 32737 kPa | 1046.6 kg/m3
323.15 K, 32772 kPa | 1046.7 kg/m3
323.15 K, 32808 kPa | 1046.9 kg/m3
323.15 K, 32843 kPa | 1046.6 kg/m3
323.15 K, 32886 kPa | 1046.8 kg/m3
323.15 K, 32921 kPa | 1046.8 kg/m3
323.15 K, 33152 kPa | 1046.9 kg/m3
323.15 K, 33188 kPa | 1047 kg/m3
323.15 K, 33232 kPa | 1046.9 kg/m3
323.15 K, 33268 kPa | 1047 kg/m3
323.15 K, 33305 kPa | 1046.9 kg/m3
323.15 K, 33386 kPa | 1047 kg/m3
323.15 K, 33430 kPa | 1047.1 kg/m3
323.15 K, 33468 kPa | 1047.2 kg/m3
323.15 K, 33504 kPa | 1047.1 kg/m3
323.15 K, 33549 kPa | 1047.2 kg/m3
323.15 K, 33587 kPa | 1047.2 kg/m3
323.15 K, 33625 kPa | 1047.2 kg/m3
323.15 K, 33664 kPa | 1047.2 kg/m3
323.15 K, 33690 kPa | 1047.2 kg/m3
323.15 K, 33710 kPa | 1047.3 kg/m3
323.15 K, 33750 kPa | 1047.2 kg/m3
323.15 K, 33797 kPa | 1047.3 kg/m3
323.15 K, 33837 kPa | 1047.4 kg/m3
323.15 K, 34013 kPa | 1047.4 kg/m3
323.15 K, 34067 kPa | 1047.4 kg/m3
323.15 K, 34113 kPa | 1047.7 kg/m3
323.15 K, 34161 kPa | 1047.5 kg/m3
323.15 K, 34221 kPa | 1047.5 kg/m3
323.15 K, 34272 kPa | 1047.7 kg/m3
323.15 K, 34276 kPa | 1047.6 kg/m3
323.15 K, 34313 kPa | 1047.6 kg/m3
323.15 K, 34342 kPa | 1047.6 kg/m3
323.15 K, 34379 kPa | 1047.7 kg/m3
323.15 K, 34410 kPa | 1047.7 kg/m3
323.15 K, 34436 kPa | 1047.7 kg/m3
323.15 K, 34450 kPa | 1047.8 kg/m3
323.15 K, 34468 kPa | 1047.9 kg/m3
323.15 K, 34568 kPa | 1047.8 kg/m3
323.15 K, 34570 kPa | 1047.8 kg/m3 and 1047.9 kg/m3
323.15 K, 34571 kPa | 1047.7 kg/m3
323.15 K, 34572 kPa | 1047.7 kg/m3 and 1047.9 kg/m3 and 1047.8 kg/m3
343.13 K, 2755.8 kPa | 1010.1 kg/m3
343.13 K, 2840 kPa | 1010.2 kg/m3
343.13 K, 4339.6 kPa | 1011.5 kg/m3
343.14 K, 104.4 kPa | 1008.1 kg/m3
343.14 K, 105.3 kPa | 1008.1 kg/m3
343.14 K, 105.8 kPa | 1008.1 kg/m3
343.14 K, 106.3 kPa | 1008.1 kg/m3
343.14 K, 107.5 kPa | 1008.2 kg/m3
343.14 K, 108.6 kPa | 1008.2 kg/m3
343.14 K, 110.3 kPa | 1008.1 kg/m3
343.14 K, 112.9 kPa | 1008.2 kg/m3
343.14 K, 116.2 kPa | 1008.1 kg/m3
343.14 K, 121.8 kPa | 1008.1 kg/m3
343.14 K, 129.6 kPa | 1008.1 kg/m3
343.14 K, 141.1 kPa | 1008.3 kg/m3
343.14 K, 155.9 kPa | 1008.2 kg/m3
343.14 K, 167 kPa | 1008.1 kg/m3
343.14 K, 181.6 kPa | 1008.1 kg/m3
343.14 K, 200 kPa | 1008.2 kg/m3
343.14 K, 216 kPa | 1008.1 kg/m3
343.14 K, 226.6 kPa | 1008.2 kg/m3
343.14 K, 238.6 kPa | 1008.3 kg/m3
343.14 K, 252.1 kPa | 1008.2 kg/m3
343.14 K, 267.4 kPa | 1008.2 kg/m3
343.14 K, 284.6 kPa | 1008.3 kg/m3
343.14 K, 304.8 kPa | 1008.3 kg/m3
343.14 K, 328.1 kPa | 1008.2 kg/m3
343.14 K, 354.2 kPa | 1008.2 kg/m3
343.14 K, 383.4 kPa | 1008.3 kg/m3
343.14 K, 404.4 kPa | 1008.4 kg/m3
343.14 K, 419.5 kPa | 1008.4 kg/m3
343.14 K, 436.2 kPa | 1008.5 kg/m3
343.14 K, 541.8 kPa | 1008.4 kg/m3
343.14 K, 568.7 kPa | 1008.5 kg/m3
343.14 K, 598.4 kPa | 1008.6 kg/m3
343.14 K, 626.6 kPa | 1008.5 kg/m3
343.14 K, 662.6 kPa | 1008.4 kg/m3
343.14 K, 698.7 kPa | 1008.5 kg/m3
343.14 K, 717.3 kPa | 1008.6 kg/m3
343.14 K, 736.7 kPa | 1008.6 kg/m3
343.14 K, 752.7 kPa | 1008.6 kg/m3
